For the experiment, the target named is RIPK1 (Homo sapiens (Human), UniProt Q13546). The experiment is described as follows: RIPK1-ADP-Glo Enzymatic Assay. To be noted: recombinant GST-RIPK1 kinase domain (residues 1-327), 25 nM, ten-point titration, 30 minutes pre-incubation. Format: biochemical. In outline:
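GST-RIPK1 kinase domain (residues 1-327, Sf21-expressed; 25 nM final) was pre-incubated 30 min at ambient temperature with compound (10-point 1:3 series from 100000 nM, 1% DMSO) in HEPES pH 7.3 buffer with 20 mM MgCl2. The reaction was started with 900 μM ATP (addition solution) and 3 μM dephosphorylated MBP and ran 150 min. Read-out was ADP-Glo luminescence, with EC50 from a four-parameter fit.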
(In ADP-Glo the light output rises with the ADP produced.)
Sequence of RIPK1 (Q13546 1-327): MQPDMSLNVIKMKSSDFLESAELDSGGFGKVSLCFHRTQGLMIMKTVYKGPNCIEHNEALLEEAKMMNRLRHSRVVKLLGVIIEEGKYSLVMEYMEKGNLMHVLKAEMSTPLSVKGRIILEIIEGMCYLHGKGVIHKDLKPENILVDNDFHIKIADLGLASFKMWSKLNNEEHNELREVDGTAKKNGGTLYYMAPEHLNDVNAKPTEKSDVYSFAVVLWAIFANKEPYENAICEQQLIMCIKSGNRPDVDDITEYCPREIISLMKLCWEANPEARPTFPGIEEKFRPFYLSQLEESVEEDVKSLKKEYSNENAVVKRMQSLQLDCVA
Usually EC50 stands for the midpoint of the concentration-response curve. For `O=C1N2[C@H](c3cc(F)cc(F)c3)CCN2CC12CCN(c1cc(-c3cnn(C(F)F)c3)ncn1)CC2` [Example 1.87, (S)-1-(6-(1-(difluoromethyl)-1H-pyrazol-4-yl)pyrimidin-4-yl)-7′-(3,5-difluorophenyl)dihydro-1′H,3′H,5′H-spiro[piperidine-4,2′-pyrazolo[1,2-a]pyrazol]-1′-one], the EC50 was found to be 6 nM.
As for `O=C(c1cc(F)cc(F)c1F)N1CCC2(CC1)CN1CC[C@@H](c3cc(F)cc(F)c3)N1C2=O` [Example 4.12, (S)-7′-(3,5-difluorophenyl)-1-(2,3,5-trifluorobenzoyl) dihydro-1′H,3′H,5′H-spiro[piperidine-4,2′-pyrazolo[1,2-a]pyrazol]-l′-one], the figure is 26 nM; as for `Cc1ccn(-c2ccnc(N3CCC4(CC3)CN3CC[C@@H](c5cc(F)cc(F)c5)N3C4=O)c2)n1` [Example 2.5, (S)-7′-(3,5-difluorophenyl)-1-(4-(3-methyl-1H-pyrazol-1-yl)pyridin-2-yl)dihydro-1′H,3′H,5′H-spiro[piperidine-4,2′-pyrazolo[1,2-a]pyrazol]-1′-one], 118 nM.
Take `CC(=O)c1cccc(N2CCC3(CC2)CN2CC[C@@H](c4cc(F)cc(F)c4)N2C3=O)n1` [Example 1.64, (S)-1-(6-acetylpyridin-2-yl)-7′-(3,5-difluorophenyl)dihydro-1′H,3′H,5′H-spiro[piperidine-4,2′-pyrazolo[1,2-a]pyrazol]-1′-one]: the half-maximal effective concentration (EC50) is 25 nM.
For the molecule `Cn1ccc(C(=O)N2CCC3(CC2)CN2CC[C@@H](c4cc(F)cc(F)c4)N2C3=O)n1` [Example 4.6, (S)-7′-(3,5-difluorophenyl)-1-(1-methyl-1H-pyrazole-3-carbonyl)dihydro-1′H,3′H,5′H-spiro[piperidine-4,2′-pyrazolo[1,2-a]pyrazol]-l′-one], the concentration for a half-maximal effect (EC50) was determined as 594 nM.
For `O=C1N2[C@H](c3cc(F)cc(F)c3)CCN2CC12CCN(c1noc3ccccc13)CC2` [Example 2.6, (S)-1-(benzo[d]isoxazol-3-yl)-7′-(3,5-difluorophenyl)dihydro-1′H,3′H,5′H-spiro[piperidine-4,2′-pyrazolo[1,2-a]pyrazol]-1′-one], the concentration for a half-maximal effect (EC50) is 145 nM.
`Cc1nc(N2CCC3(CC2)CN2CC[C@@H](c4cc(F)cc(F)c4)N2C3=O)ccc1F` [Example 11.2, (S)-7′-(3,5-difluorophenyl)-1-(5-fluoro-6-methylpyridin-2-yl)dihydro-1′H,3′H,5′H-spiro[piperidine-4,2′-pyrazolo[1,2-a]pyrazol]-l′-one]: the concentration giving a half-maximal response (EC50) was 43 nM.
On to `O=C1N2[C@H](c3cc(F)cc(F)c3)CCN2CC12CCN(c1nc(Cl)nc3c1CCC3)CC2` [Example 1.65, (S)-1-(2-chloro-6,7-dihydro-5H-cyclopenta[d]pyrimidin-4-yl)-7′-(3,5-difluorophenyl)dihydro-1′H,3′H,5′H-spiro[piperidine-4,2′-pyrazolo[1,2-a]pyrazol]-1′-one], for which the concentration for a half-maximal effect (EC50) is 144 nM.
For the molecule `O=C1N2[C@H](c3cc(F)cc(F)c3)CCN2CC12CCN(c1cccc3ccnn13)CC2` [Example 8.2, (S)-7′-(3,5-difluorophenyl)-1-(pyrazolo[1,5-α]pyridin-7-yl) dihydro-1′H,3′H,5′H-spiro [piperidine-4,2′-pyrazolo[1,2-α]pyrazol]-1′-one], the 50% effective concentration (EC50) turned out to be 34 nM.
As for `O=C1N2[C@H](c3cc(F)cc(F)c3)CCN2CC12CCN(c1ccnc3ccccc13)CC2` [Example 2.7, (S)-7′-(3,5-difluorophenyl)-1-(quinolin-4-yl)dihydro-1′H,3′H,5′H-spiro[piperidine-4,2′-pyrazolo[1,2-a]pyrazol]-1′-one], the figure is 24 nM; as for `N#Cc1ccc(N2CCC3(CC2)CN2CC[C@@H](c4cc(F)cc(F)c4)N2C3=O)nc1` [Example 1.50, (S)-6-(7′-(3,5-difluorophenyl)-1′-oxodihydro-1′H,3′H,5′H-spiro[piperidine-4,2′-pyrazolo[1,2-a]pyrazol]-1-yl)nicotinonitrile], 64 nM; as for `Cn1cc(-c2cc(N3CCC4(CC3)CN3CC[C@@H](c5cc(F)cc(F)c5)N3C4=O)ncn2)cn1` [Example 1.93, (S)-7′-(3,5-difluorophenyl)-1-(6-(1-methyl-1H-pyrazol-4-yl)pyrimidin-4-yl)dihydro-1′H,3′H,5′H-spiro[piperidine-4,2′-pyrazolo[1,2-a]pyrazol]-1′-one], 17 nM.
On to `O=C1N2[C@H](c3cc(F)cc(F)c3)CCN2CC12CCN(c1ccc(F)cc1)CC2` [Example 10.3, (S)-7′-(3,5-difluorophenyl)-1-(4-fluorophenyl)dihydro-1′H,3′H,5′H-spiro[piperidine-4,2′-pyrazolo[1,2-a]pyrazol]-l′-one], for which the concentration giving a half-maximal response (EC50) is 122 nM.
In the case of `Cc1ccc(N2CCC3(CC2)CN2CC[C@@H](c4cc(F)cc(F)c4)N2C3=O)n2nccc12` [Example 9.1, (S)-7′-(3,5-difluorophenyl)-1-(4-methylpyrazolo[1,5-α]pyridin-7-yl) dihydro-1′H,3′H,5′H-spiro [piperidine-4,2′-pyrazolo[1,2-α]pyrazol]-1′-one] it was 17 nM; in that of `NC(=O)c1ccnc(N2CCC3(CC2)CN2CC[C@@H](c4cc(F)cc(F)c4)N2C3=O)n1` [Example 1.24, (S)-2-(7′-(3,5-difluorophenyl)-1′-oxodihydro-1′H,3′H,5′H-spiro[piperidine-4,2′-pyrazolo[1,2-a]pyrazol]-1-yl)pyrimidine-4-carboxamide], 136 nM.
Take `O=C1N2[C@H](c3cc(F)cc(F)c3)CCN2CC12CCN(c1cccc(CO)n1)CC2` [Example 1.4, (7′S)-7′-(3,5-difluorophenyl)-1-[6-(hydroxymethyl)pyridin-2-yl]dihydro-1′H,3′H,5′H-spiro [piperidine-4,2′-pyrazolo[1,2-a]pyrazol]-1′-one]: the 50% effective concentration (EC50) came out at 629 nM.
As for `Cc1ccc(C(=O)N2CCC3(CC2)CN2CC[C@@H](c4cc(F)cc(F)c4)N2C3=O)cc1F` [Example 4.22, (S)-7′-(3,5-difluorophenyl)-1-(3-fluoro-4-methylbenzoyl) dihydro-1′H,3′H,5′H-spiro[piperidine-4,2′-pyrazolo[1,2-a]pyrazol]-l′-one], the figure is 46 nM; as for `N#Cc1cc(N2CCC3(CC2)CN2CC[C@@H](c4cc(F)cc(F)c4)N2C3=O)ncn1` [Example 1.74, (S)-6-(7′-(3,5-difluorophenyl)-1′-oxodihydro-1′H,3′H,5′H-spiro[piperidine-4,2′-pyrazolo[1,2-a]pyrazol]-1-yl)pyrimidine-4-carbonitrile], 30 nM; as for `O=C1N2[C@H](c3cc(F)cc(F)c3)CCN2CC12CCN(c1ncc(F)c(C(F)F)n1)CC2` [Example 1.57, (S)-1-(4-(difluoromethyl)-5-fluoropyrimidin-2-yl)-7′-(3,5-difluorophenyl)dihydro-1′H,3′H,5′H-spiro[piperidine-4,2′-pyrazolo[1,2-a]pyrazol]-1′-one], 26 nM.
As for `O=C1N2[C@H](c3cc(F)cc(F)c3)CCN2CC12CCN(c1cc(F)ncc1F)CC2` [Example 1.9, (7′S)-7′-(3,5-difluorophenyl)-1-(2,5-difluoropyridin-4-yl)dihydro-1′H,3′H,5′H-spiro[piperidine-4,2′-pyrazolo[1,2-a]pyrazol]-1′-one], the figure is 37 nM.

Values taken from patent publication US20240425524A1, “SPIROTRICYCLE RIPK1 INHIBITORS AND METHODS OF USES THEREOF” (Merck Sharp & Dohme LLC, priority 2021, published 2024).
